Reference: US8455194B2, “Diagnostic methods” (Isis Innovation Limited, priority 2008, dated 2013)
Read-outs that look alike come from different tables or passages of the source. Blank lines part the entries; values can stand above or below the molecule they belong to.

Assays:
SLCO1B1 rs4149056 SNP = settings: summary estimate with interval in brackets; cited from earlier work
[1] = Asian subjects compared with a White (Caucasian) control group; cited from earlier work
[2] = cited from earlier work
[3] = for Cumulative percentage with myopathy / Estimated cumulative myopathy risk: 80 mg simvastatin daily; for Estimated cumulative myopathy risk: life-table analysis
From the text: After randomisation, follow-up of participants was scheduled to occur at 2, 4, 8 and 12 months, and then at 6-monthly intervals. Information was sought about any possible myocardial infarction, hospitalisation for angina, stroke, vascular procedure, pulmonary embolus, cancer or other serious adverse experience. In addition, any new unexplained muscle pain or weakness was explicitly sought and recorded. A blood sample was taken at each follow-up visit for central laboratory assay of CK and ALT.
Standard 1d.f. (trend) and 2 d.f. […] Haploview v4.0 release candidate 2^25 was used to estimate linkage disequilibrium and plot association results for genotyped SNPs. Haplotype frequencies and associated risks were estimated using tools in the haplo.stats (v1.3.1) package^26 in R (v2.6.1)^27. Physical positions refer to NCBI build-36 of the human genome, and alleles are expressed in the forward strand of the reference human genome (NCBI build-36). Ensembl version 46 and NCBI dbSNP build 127 and published reports^11,28,29 were used to classify SNPs as synonymous or non-synonymous and to identify their location within introns or exons.

[4] = Heart Protection Study (HPS): myopathy in participants allocated 40 mg simvastatin daily; type: in vivo, human
Procedure: (§1) Using DNA extracted from 19,856 (97%) participants, the rs4149056 and rs2306283 SNPs in SLCO1B1 were successfully genotyped in 16,664 participants classified as Caucasian. Effects of these genotypes on myopathy risk and on LDL-cholesterol reduction were then assessed.

LDL-cholesterol = test: Heart Protection Study (HPS): LDL-cholesterol reduction on 40 mg simvastatin daily; type: in vivo, human; settings: 4-6 weeks of 40 mg simvastatin daily
Procedure: as §1
Among 16,664 genotyped participants in HPS,^22 the rs4149056 and rs2306283 variants were not associated with significant differences in pre-treatment LDL-cholesterol levels. […] These 17,000 genotyped participants without myopathy also provide an alternative control population for the SEARCH cases, yielding an odds ratio of 4.7 (3.5-6.4) per rs4149056 C allele and a stronger p-value of 3×10^−28.

[5] = among 6031 participants allocated 80 mg simvastatin daily, average follow-up about 6 years
[6] = among 6033 participants allocated 20 mg simvastatin daily
[7] = among 10,269 participants allocated 40 mg simvastatin daily, 5 years average follow-up

Structure (SMILES): CC(C)n1c(/C=C/C(O)CC(O)CC(=O)O)c(-c2ccc(F)cc2)c2ccccc21 (stereo not drawn) [Fluvastatin (acid), Fluvastatin]
% higher AUC per C allele among studies of this statin (SLCO1B1 rs4149056 SNP): 10 (−9, 34) %

Structure (SMILES): O=C(O)C[C@H](O)C[C@H](O)/C=C/c1c(C2CC2)nc2ccccc2c1-c1ccc(F)cc1 [Pitavastatin (acid), Pitavastatin]
% higher AUC per C allele among studies of this statin (SLCO1B1 rs4149056 SNP): 37 (10, 71) %

Structure (SMILES): CC[C@H](C)C(=O)O[C@H]1C[C@H](O)C=C2C=C[C@H](C)[C@H](CC[C@@H](O)C[C@@H](O)CC(=O)O)[C@H]21 [Pravastatin (acid), Pravastatin]
% higher AUC per C allele among studies of this statin (SLCO1B1 rs4149056 SNP): 35 (17, 56) %

Structure (SMILES): CC(C)c1nc(N(C)S(C)(=O)=O)nc(-c2ccc(F)cc2)c1/C=C/[C@@H](O)C[C@@H](O)CC(=O)O [Rosuvastatin (acid), Rosuvastatin]
Elevation in median exposure of rosuvastatin [1]: ~2 fold
Increase in AUC of rosuvastatin ([2]; rosuvastatin combined with cyclosporine): 7-11 times
% higher AUC per C allele among studies of this statin (SLCO1B1 rs4149056 SNP): 31 (15, 42) %

Structure (SMILES): CCC(C)(C)C(=O)O[C@H]1C[C@@H](C)C=C2C=C[C@H](C)[C@H](CC[C@@H](O)C[C@@H](O)CC(=O)O)[C@H]21 [Simvastatin acid]
% higher AUC per C allele among studies of this statin (SLCO1B1 rs4149056 SNP): 61 (30, 100) %

Structure (SMILES): Cc1ccc(C)c(OCCCC(C)(C)C(=O)O)c1 [gemfibrozil]
Increase in area under the statin elimination curve (AUC) ([2]; gemfibrozil given concomitantly with several statins): 2-4 fold

Cumulative percentage with myopathy ([3]; all genotypes, Year 1): 0.91%
Cumulative percentage with myopathy ([3]; all genotypes, Year 5): 1.56%
Estimated cumulative myopathy risk ([3]; rs4149056 CC homozygotes): 18%
Estimated cumulative myopathy risk ([3]; rs4149056 CT genotype): about 3%
Estimated cumulative myopathy risk ([3]; rs4149056 TT homozygotes): 0.6%
Cumulative percentage with myopathy ([3]; rs4149056 genotype CC, Year 1): 15.25%
Cumulative percentage with myopathy ([3]; rs4149056 genotype CC, Year 5): 18.55%
Cumulative percentage with myopathy ([3]; rs4149056 genotype CT, Year 1): 1.38%
Cumulative percentage with myopathy ([3]; rs4149056 genotype CT, Year 5): 2.83%
Cumulative percentage with myopathy ([3]; rs4149056 genotype TT, Year 1): 0.34%
Cumulative percentage with myopathy ([3]; rs4149056 genotype TT, Year 5): 0.63%
Number of definite myopathy cases [3, 5]: 49
Number of incipient myopathy cases [3, 5]: 49
Number of definite myopathy cases [3, 6]: 2
Number of incipient myopathy cases [3, 6]: 6
Number of definite myopathy cases [4, 7]: 10
Number of incipient myopathy cases [4, 7]: 14
Number of myopathy cases (definite plus incipient) [4, 7]: 24
Number of definite or incipient myopathy cases while taking statin ([4]; participants taking their allocated 40 mg simvastatin daily): 23
Structure (SMILES): CCC(C)(C)C(=O)O[C@H]1C[C@@H](C)C=C2C=C[C@H](C)[C@H](CC[C@@H]3C[C@@H](O)CC(=O)O3)[C@H]21 [simvastatin]
Average reduction in LDL-cholesterol (LDL-cholesterol; 16,664 genotyped participants, SE 0.12): 40.57%
Larger LDL-cholesterol reduction per rs2306283 G allele (LDL-cholesterol; both variants considered together, SE 0.18): 0.62%
Smaller LDL-cholesterol reduction per rs4149056 C allele (LDL-cholesterol; both variants considered together, SE 0.25): 1.28%
